Publication PMC8615647, “Structural Rearrangements of a Dodecameric Ketol-Acid Reductoisomerase Isolated from a Marine Thermophilic Methanogen” (Biomolecules, 2021)

Legend:
MtKARI = biological target: T1, MtKARI (Methanothermococcus thermolithotrophicus, UniProt A0A8X6EH16); assay: X-ray crystallography; assay type: binding; details: open state, 2.2 A; crystal soaked with 50 mM L-tartrate, 20 mM NADP, 50 mM MgCl2; Mg2+-free, pH 6.5; substrate analogue at the nicotinamide site
T1 construct: gene ilvC; native full-length class I enzyme purified from M. thermolithotrophicus, no tag; modelled residues 2-330 (Rossmann 2-183, knot 184-330); dodecamer 438 kDa
T1 sequence (A0A8X6EH16 1-330): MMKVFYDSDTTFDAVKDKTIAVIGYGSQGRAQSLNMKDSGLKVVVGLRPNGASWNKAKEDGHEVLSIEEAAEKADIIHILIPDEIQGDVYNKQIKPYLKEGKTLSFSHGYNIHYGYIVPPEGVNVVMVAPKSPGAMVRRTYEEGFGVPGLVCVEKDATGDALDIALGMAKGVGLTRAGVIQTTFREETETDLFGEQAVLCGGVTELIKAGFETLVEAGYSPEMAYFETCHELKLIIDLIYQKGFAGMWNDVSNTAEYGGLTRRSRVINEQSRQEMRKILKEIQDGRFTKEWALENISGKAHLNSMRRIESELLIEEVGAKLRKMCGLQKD

[1] = biological target: the molecule itself; assay: native gel or EMSA; hrCN-PAGE, 5 to 15% gradient gel, 2 ug enriched MtKARI; cathode buffer with 0.05% sodium deoxycholate and 0.01% dodecyl maltoside, pH 7

Molecule: O=C(O)[C@H](O)[C@@H](O)C(=O)O [L-tartrate]
- X-ray crystallography (MtKARI): tartrate takes the vacant position of the nicotinamide group of NADPH and is loosely bound

B1: Ketol-acid reductoisomerase from Methanothermococcus thermolithotrophicus (enzyme, UniProt A0A8X6EH16 1-330, looked up)
chain: T1 sequence (A0A8X6EH16 1-330)
notes: ketol-acid reductoisomerase (EC 1.1.1.86), class I, of Methanothermococcus thermolithotrophicus DSM 2095; native enzyme; model with Rossmann domain (2-183) and knot domain (184-330); stretch 47-53 is printed as LRPNGAS; Native protein without tags, identified by MALDI-TOF-MS; The crystals held NADP and Mg2+ (close state) or NADP and tartrate (open state); also called MtKARI; KARI; source: …
- stoichiometry N [1]: 12
